Among the data in PubChem BioAssay (NCI) are TGI values, retold here.

Some test systems named below: CCRF-CEM leukemia; HS 578T breast; IGROV1 ovarian; K-562 leukemia; LOX IMVI melanoma; MCF7 breast; MDA-MB-231 breast; MDA-N; NCI-H522 lung; OVCAR-3 ovarian; OVCAR-4 ovarian; SF-295 CNS; SNB-19 CNS; SR leukemia; SW-620 colon.
What all share (assay): growth of human tumour cells (NCI), 48 h

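48-hour exposure; five concentrations; linearly interpolated endpoints. TGI marks complete inhibition of growth.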

Turning to `CN(C)c1ccc(C(Cc2ccccc2)C2NC(=S)NC2=O)cc1` (stereo not given), the TGI in the test with CCRF-CEM leukemia, in the test on HS 578T breast, with IGROV1 ovarian, in the test with K-562 leukemia, with LOX IMVI melanoma and with MCF7 breast was over 100 µM in each case. The TGI with MDA-MB-231 breast, in the test on MDA-N, in the test with NCI-H522 lung, in the test on OVCAR-3 ovarian, in the test with OVCAR-4 ovarian and in the test on SF-295 CNS was over 100 µM in each case. For the same compound, the TGI with SNB-19 CNS, with SR leukemia and in the test on SW-620 colon was over 100 µM each time.
Take `Cc1ccc(NC(Nc2ccc(C)cc2C)=C(/C=C(\Cl)[N+](=O)[O-])[N+](=O)[O-])c(C)c1`: the TGI is 1.72 µM with CCRF-CEM leukemia; 17 µM in the test with HS 578T breast; 20.9 µM in the test with IGROV1 ovarian; 3.75 µM in the test with K-562 leukemia; 3.25 µM in the test on LOX IMVI melanoma; 12.4 µM in the test with MCF7 breast. Further, the TGI in the test on MDA-MB-231 breast was 17.3 µM; in the test on MDA-N it was 10.9 µM; in the test on NCI-H522 lung, 4.52 µM; in the test with OVCAR-3 ovarian, 8.7 µM; in the test with OVCAR-4 ovarian it was 12.9 µM; in the test on SF-295 CNS, 31.2 µM. Further, the values for the TGI with SNB-19 CNS, in the test on SR leukemia and in the test with SW-620 colon were 26 µM, 4.13 µM and 4.02 µM, respectively.
As for `CC(=O)c1ccc2c(c1)CC1(C2)Cc2cc3c(cc2C1=O)CCC3` (stereo not given), the TGI is 59.2 µM in the test on CCRF-CEM leukemia; 89.5 µM in the test on HS 578T breast; 59 µM in the test on IGROV1 ovarian; over 100 µM in the test with K-562 leukemia; 40.6 µM with LOX IMVI melanoma; 43.8 µM with MCF7 breast. In addition, the TGI was found to be 49.6 µM in the test with MDA-MB-231 breast; 32.9 µM in the test on MDA-N; 83.6 µM in the test with NCI-H522 lung; 40.6 µM with OVCAR-3 ovarian; 48 µM in the test with OVCAR-4 ovarian; 49 µM in the test on SF-295 CNS. Also, the TGI in the test on SNB-19 CNS is over 100 µM; in the test on SR leukemia it was 16.7 µM; with SW-620 colon, over 100 µM.
